Article PMC7096398, “Oxytocin Receptors Regulate Social Preference in Zebrafish” (Scientific Reports, 2020)
Entries after “also recorded” stand apart in the source; their conditions may differ.

Tested on: adult zebrafish
Assay: Social preference in adult zebrafish
Assay type: in vivo, zebrafish (Danio rerio)
Method: Adult and larval behavioural testing was performed between 9 AM and 4 PM. All fish were fed prior to and after experiments, and larvae were also given an additional feed at midday. Adult fish were of a 1:1 sex ratio, and focal fish and stimulus fish were size-matched. Adult fish and shoals were filmed using a web camera and Debut Video Capture Software (NCH Software, Greenwood Village, USA), and videos were analysed using EthoVision version 11 (Noldus, Wageningen, the Netherlands).
The experimental setup comprised one large test tank (60 cm × 30 cm), and two smaller side tanks (15 cm × 30 cm) positioned at the short ends of the test tank; see Fig. 4. The test tank (the arena) was divided into five different zones used when tracking the video recordings, see Fig. 4. The zone closest to the stimuli shoal was always designated Zone 1, and the zone furthest away from the shoal was always designated Zone 5. […] All tanks were visually isolated from each other during the acclimation period of 10 minutes.
A stimulus shoal of eight zebrafish, with a 1:1 sex ratio, was placed in one of the side tanks, while the opposite side tank remained empty. Focal fish and shoal fish were selected to be of similar size in order not to evoke adverse reactions, such as anxiety or aggression. The experiments were thoroughly randomized between treatment groups for time of day and shoal used. The stimulus fish had been habituated to the room and aquarium for 24 hours prior to the start of the experiments. Two shoals were used as stimulus shoals throughout the experiment. The side for the stimulus shoal was alternated in order to avoid any potential place preference of the focal fish. The reasons for using two shoals for all focal fish were to decrease the behavioural variation in focal fish that may be caused by inter-shoal variations, to decrease the stress in stimulus fish caused by netting and transferring them between tanks that may be transferred to the focal fish, and to limit the number of fish used according to the 3 R principles. There were no statistical significant effects of day of testing (One-way ANOVA; p > 0.7), time of testing (One-way ANOVA; p > 0.5), or the identity of the stimulus shoal (shoal 1 versus shoal 2; un-paired t-test; p > 0.1) on the total time the focal fish spent in Zone 1 (closest to the shoal) during the 15 minutes test time.
At 24 hours prior to the experiment, zebrafish were weighed, placed into separate holding tanks, and brought to the experimental room in order to acclimatise. The following day fish were intraperitoneally injected with vehicle Ringer’s solution (13 females and 8 males), or the antagonist (11 females and 10 males). The Ringer’s solution recipe was retrieved from the Zebrafish Information Network (ZFIN, University of Oregon, Eugene, OR, USA).
Intraperitoneal injections were conducted using a 1 mL U-100 BD MicroFine™ Insulin Syringe (Becton Dickinson France S.A.S., France). Post injection, animals were placed into their holding tanks for one hour to recover. […] Following this, focal fish were individually placed in the middle of the test tank and left to freely move around for ten minutes (acclimation period) before visual partitions were removed, which initiated the start of the test period (15 minutes).
All data for the social preference and novel tank diving experiments in adults were extracted as processed means per minute from EthoVision. For the shoaling experiments, raw data was exported from EthoVision, and then post-processed by an in-house script written in Python 3.4, in order to compute IFD, NND, and FND as described elsewhere. For timelines, repeated measures analysis of variance (RM-ANOVA) was used. For pairwise comparisons of total means between groups, Student’s T-tests were used.

Structure (SMILES): Cc1ccccc1N1CCN(S(=O)(=O)C[C@]23CC[C@H](C[C@@H]2NC(=O)[C@@H](N)CCS(C)(=O)=O)C3(C)C)CC1 [L-368,899]
- Social preference in adults, in words (100 µg per gram fish i.p.): decreased social preference; also recorded: inhibits social preference
- Social preference in adults, in words (100 µg per gram fish i.p., listed as antagonist): did not completely abolish social preference
- Time in all the other zones vs vehicle (15 min test, 100 µg per gram fish i.p.): significantly more time
- Time in Zone 1 (closest to the shoal) vs vehicle (15 min test, 100 µg per gram fish i.p., t(39) = 3.339, p = 0.0016): significantly less time
- Distance from shoal vs vehicle (15 min test, F(1,39) = 10.79, p = 0.0022): significantly further away
- Social behaviour: Distance to shoal (adult social preference, 100 µg per gram fish i.p., 1 h before test, mean ± SEM, vehicle 11.0 ± 1.8): 19.7 ± 1.9 cm
- Social behaviour: Social zone duration (adult social preference, 100 µg per gram fish i.p., 1 h before test, mean ± SEM, vehicle 45.9 ± 2.3): 34.5 ± 2.4 s/min
- Locomotion: Distance (adult social preference, 100 µg per gram fish i.p., 1 h before test, mean ± SEM, vehicle 528 ± 19, p = 0.25): 496 ± 20 cm/min
- Activity parameters vs vehicle, social preference test (average distance p = 0.25, average velocity p = 0.32): no significant differences
- Approach to shoal, acclimation vs test period (paired T-test, average distance to shoal, antagonist t(19) = 5.983, p = 9e-6): responded to the visual stimuli of a conspecific shoal
- Social preference, pilot experiment, 5 μg per gram fish (pilot, 5 μg L-368,899 per gram fish): did not affect social preference
- Social preference, pilot experiment, 50 μg per gram fish (pilot, 50 μg L-368,899 per gram fish): did not affect social preference
